Measured values reported in patent US20250332181A1, “ANTIBIOTIC METHODS AND COMPOSITIONS” (AI BIO DISCOVERY LLC, priority 2024, published 2025).
“Also recorded” adds a separate entry of the source.

Legend:
Acinetobacter baumannii = assay: Disk diffusion test on Acinetobacter baumannii; type: cell-based
From the text: (§1) Applicants undertook two rounds of studies. […] When agar plating was required, both rounds of Applicants' studies were undertaken using similar disk diffusion methods on bacteria grown on agar substrates in Petri dishes. These methods conform to those prescribed by the Clinical & Laboratory Standards Institute (https://clsi.org). […]

Klebsiella pneumoniae = assay: Disk diffusion test on Klebsiella pneumoniae; type: cell-based
From the text: (§2) Applicants undertook two rounds of studies. The results of the first round are illustrated in FIGS. 1A-9B and discussed in the related text. The results of the second round of studies are illustrated in FIGS. 10-23 and discussed in the related text. When agar plating was required, both rounds of Applicants' studies were undertaken using similar disk diffusion methods on bacteria grown on agar substrates in Petri dishes. These methods conform to those prescribed by the Clinical & Laboratory Standards Institute (https://clsi.org).
(§3) Disk Diffusion tests with beta-lactam antibiotics with and without the beta-lactamase inhibitor of FIG. 1A. Closely spaced disks disclose possible synergistic or inhibitory effects between the antibiotics and the compound of FIG. 1A (labeled in FIGS. 4A-9B as Compound C). The distances between disks show the effectiveness of the possible synergy. […] Each disk contains either the compound of FIG. 1A or an antibiotic (one of FIGS. 3A-3D), or the compound of […] and an antibiotic (one of FIGS. 3A-3D). When a disk with the compound of FIG. 1A is in proximity to a disk with an antibiotic both agents diffuse into the bacterial growth medium, allowing us to observe the area where both agents are present at the same time. These disk diffusion tests were evaluated with the following:
(§4) As noted above, Applicants' studies were undertaken using similar disk diffusion methods on bacteria grown on agar substrates in Petri dishes. These methods conform to those prescribed by the Clinical & Laboratory Standards Institute (https://clsi.org).

Escherichia coli = assay: Disk diffusion test on Escherichia coli; type: cell-based
From the text: as §1

Pseudomonas aeruginosa = assay: Disk diffusion test on Pseudomonas aeruginosa; type: cell-based; settings: in combination with aztreonam
From the text: as §1

Citrobacter freundii = assay: Disk diffusion test on Citrobacter freundii; type: cell-based
From the text: as §1

[1] = system: methicillin-resistant coagulase-negative Staphylococcus sps. (MRCoNS); assay: Disk diffusion test on MRCoNS; type: cell-based
From the text: as §2, §3, §4

[2] = system: MSSA (methicillin-sensitive Staphylococcus aureus); assay: Disk diffusion test on Staphylococcus aureus (MSSA); type: cell-based
From the text: as §1

[3] = system: complicated urinary tract infection, including acute pyelonephritis; assay: Intravenous cefepime plus 5-Boronothiophene-2-carboxylic acid in patients with complicated urinary tract infection; type: in vivo, adult patients; settings: cefepime 2.0 g + 5-Boronothiophene-2-carboxylic acid 0.5 g, intravenously over two hours every 8 hours, 7 days
Protocol: According to the disclosed invention, requisite amounts of both cefepime and 5-Boronothiophene-2-carboxylic acid are dissolved. Particularly, 2.0 g of cefepime are dissolved in sterile normal saline (0.9% sodium chloride) solution and 0.5 g of 5-Boronothiophene-2-carboxylic acid are dissolved in DMSO. Dissolution may be accelerated by use of an alcohol such as ethyl alcohol. Thereafter, a 2.5 g dose of a combination of cefepime (2.0 g) and 5-Boronothiophene-2-carboxylic acid (0.5 g) together with sterile normal saline (0.9% sodium chloride) as a diluent is administered to randomly assigned adult patients challenged with complicated urinary tract infection, including acute pyelonephritis, over a two-hour period with the dose being administered intravenously every 8 hours. A 1.0 g dose of a placebo is administered over 30-minute periods, every 8 hours also intravenously. The administration may be carried out over a period of 7 days.

[4] = in combination with ceftazidime
[5] = in combination with ceftriaxone

**Q.** With O=C(O)c1ccc(B(O)O)s1 [Compound C, 2-carboxythiophene-5-boronic acid] as the compound, how does the “effectiveness of the combination with antibiotic” value (from here on “effectiveness of the combination”) (Acinetobacter baumannii; [4]) read?
**A.** Its value is “enhanced effectiveness”.

**Q.** And the “effectiveness of the combination” value (Acinetobacter baumannii; in combination with meropenem)?
**A.** Its value is “enhanced effectiveness”.

**Q.** And the “enhancement of the action of ceftazidime” value (Klebsiella pneumoniae; ceftazidime 30 μg + Compound C 15 μg)?
**A.** The value was “very strongly enhances; also recorded: strongly enhances”.

**Q.** And the “effectiveness of the combination” value (Klebsiella pneumoniae; in combination with ceftazidime (second round))?
**A.** Its value is “enhanced effectiveness”.

**Q.** And the “effectiveness of the combination” value (Klebsiella pneumoniae; [5])?
**A.** The value was “enhanced effectiveness”.

**Q.** And the “effectiveness of the combination” value (Klebsiella pneumoniae; in combination with meropenem (second round))?
**A.** The value was “enhanced effectiveness”.

**Q.** And the “effect on the activity of meropenem” value (Klebsiella pneumoniae; meropenem 10 μg + Compound C 15 μg)?
**A.** The value was “essentially no effect”.

**Q.** What about the “effect on the activity of meropenem” value (Klebsiella pneumoniae; meropenem 10 μg + Compound C 150 μg) of the same compound?
**A.** The value was “only weakly enhances”.

**Q.** What about the “antibacterial activity of the agent by itself” value (Klebsiella pneumoniae; single agent disk, ceftazidime 30 μg, meropenem 10 μg, Compound C 15 μg) of the same compound?
**A.** The value was “no activity on its own”.

**Q.** And the “effectiveness of the combination” value (Escherichia coli; in combination with amoxycillin)?
**A.** The value was “enhanced effectiveness”.

**Q.** And the “effectiveness of the combination” value (Escherichia coli; [4])?
**A.** The value was “enhanced effectiveness”.

**Q.** What about the “effectiveness of the combination” value (Escherichia coli; [5]) of the same compound?
**A.** Its value is “enhanced effectiveness”.

**Q.** And the “effectiveness of the combination” value (Escherichia coli; in combination with meropenem)?
**A.** The value was “enhanced effectiveness”.

**Q.** And the “effectiveness of the combination” value (Pseudomonas aeruginosa)?
**A.** The value was “enhanced effectiveness”.

**Q.** What about the “effectiveness of the combination” value (Citrobacter freundii; [4]) of the same compound?
**A.** The value was “enhanced effectiveness”.

**Q.** And the “effectiveness of the combination” value (Citrobacter freundii; [5])?
**A.** The value was “enhanced effectiveness”.

**Q.** And the “effectiveness of the combination” value (Citrobacter freundii; in combination with meropenem)?
**A.** The value was “enhanced effectiveness”.

**Q.** And the “effect on cefoxitin activity” value ([1]; cefoxitin 30 μg + Compound C 15 μg)?
**A.** Its value is “does not enhance cefoxitin activity”.

**Q.** And the “effect on cefoxitin activity” value ([1]; cefoxitin 30 μg + Compound C 150 μg)?
**A.** Its value is “inhibits cefoxitin antibiotic activity”.

**Q.** And the “effectiveness of the combination” value ([1]; in combination with ampicillin)?
**A.** The value was “enhanced effectiveness”.

**Q.** What about the “effectiveness of the combination” value ([1]; in combination with penicillin G (second round)) of the same compound?
**A.** Its value is “enhanced effectiveness”.

**Q.** What about the “activation of the antibiotic action of penicillin G” value ([1]; penicillin G 10 μg + Compound C 15 μg) of the same compound?
**A.** Its value is “strongly enables; also recorded: activates the antibiotic action of penicillin G”.

**Q.** And the “activation of the antibiotic action of penicillin G” value ([1]; penicillin G 10 μg + Compound C 150 μg)?
**A.** Its value is “further activate penicillin G”.

**Q.** What about the “antibacterial activity of the agent by itself” value ([1]; single agent disk, penicillin G 10 μg, cefoxitin 30 μg, Compound C 15 μg) of the same compound?
**A.** Its value is “no antibacterial activity”.

**Q.** What about the “effectiveness of the combination” value ([2]; in combination with ampicillin) of the same compound?
**A.** Its value is “enhanced effectiveness”.

**Q.** What about the “effectiveness of the combination” value ([2]; in combination with penicillin G) of the same compound?
**A.** The value was “enhanced effectiveness”.

**Q.** And the “microbiologic and clinical success” value [3]?
**A.** The value was “both microbiologic and clinical success”.
